Reference: ChEMBL document CHEMBL5143744, “Discovery of Tenapanor: A First-in-Class Minimally Systemic Inhibitor of Intestinal Na+/H+ Exchanger Isoform 3” (ACS Med Chem Lett, 2022)
Activity calls are given as the source filed them. The rule behind the calls is not given here.

Assays:
[1] = In vivo inhibition of NEH3 in Sprague-Dawley rat assessed as fecal water content at 3 mg/kg, po administered via gavage measured after 6 hrs; assay type: functional; parameters: scale not given: the % may be the effect or the level left
[2] = Dose normalized AUC in Sprague-Dawley rat at 5.3 mg/kg, po administered via gavage by LC-MS/MS analysis; assay type: ADME, organism-based; settings: in vivo
[3] = In vivo inhibition of NEH3 in Sprague-Dawley rat assessed as sodium excretion in urine at 3 mg/kg, po administered via gavage measured after 16 hrs by ion chromatography relative to control; parameters: scale not given: the % may be the effect or the level left
Rattus norvegicus [4] = test: In vivo inhibition of NEH3 in Sprague-Dawley rat assessed as increase in cecum water content at 10 mg/kg, po administered via gavage measured after 6 hrs; assay type: functional, organism-based
[5] = AUC in Sprague-Dawley rat at 1.5 mg/kg, po administered via gavage by LC-MS/MS analysis; settings: in vivo
[6] = biological target: Sodium/hydrogen exchanger 3 (Rattus norvegicus, UniProt P26433); test: Inhibition of rat NHE3 expressed in opossum kidney cells assessed as reduction in Na-HEPES buffer-mediated pH recovery in presence of NEH1 inhibitor ethyl isopropyl amiloride by BCECF-AM dye based fluorescence assay; assay type: cell-based, Kidney epithelial cell
Sequence of Sodium/hydrogen exchanger 3 (Rattus norvegicus, UniProt P26433) (P26433 whole entry): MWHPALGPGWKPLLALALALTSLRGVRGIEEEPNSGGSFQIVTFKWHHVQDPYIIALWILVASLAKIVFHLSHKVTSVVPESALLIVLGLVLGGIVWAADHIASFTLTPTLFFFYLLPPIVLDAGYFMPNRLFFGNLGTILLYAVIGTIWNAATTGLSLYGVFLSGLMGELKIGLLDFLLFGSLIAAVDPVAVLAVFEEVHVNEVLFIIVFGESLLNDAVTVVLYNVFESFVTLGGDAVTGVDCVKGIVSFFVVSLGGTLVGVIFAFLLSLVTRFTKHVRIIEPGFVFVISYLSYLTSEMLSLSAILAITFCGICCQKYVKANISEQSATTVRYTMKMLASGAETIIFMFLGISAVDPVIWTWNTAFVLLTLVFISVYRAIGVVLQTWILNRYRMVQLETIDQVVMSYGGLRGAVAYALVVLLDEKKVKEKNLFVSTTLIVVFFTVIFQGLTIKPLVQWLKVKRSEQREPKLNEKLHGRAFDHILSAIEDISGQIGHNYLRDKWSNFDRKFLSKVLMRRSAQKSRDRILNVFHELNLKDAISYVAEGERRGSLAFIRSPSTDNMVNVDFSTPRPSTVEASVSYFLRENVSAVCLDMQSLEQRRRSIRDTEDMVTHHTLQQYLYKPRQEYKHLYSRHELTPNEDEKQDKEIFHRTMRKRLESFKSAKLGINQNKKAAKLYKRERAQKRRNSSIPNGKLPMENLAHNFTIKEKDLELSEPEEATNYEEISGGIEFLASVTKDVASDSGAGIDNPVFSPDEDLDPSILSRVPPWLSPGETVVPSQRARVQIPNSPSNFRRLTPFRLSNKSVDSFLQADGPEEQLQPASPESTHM

[7] = biological target: T1, Sodium/hydrogen exchanger 3 (Homo sapiens, UniProt P48764); test: Inhibition of human NHE3 expressed in opossum kidney cells assessed as reduction in Na-HEPES buffer-mediated pH recovery in presence of NEH1 inhibitor ethyl isopropyl amiloride by BCECF-AM dye based fluorescence assay; assay type: cell-based, Kidney epithelial cell
T1 sequence (P48764 whole entry): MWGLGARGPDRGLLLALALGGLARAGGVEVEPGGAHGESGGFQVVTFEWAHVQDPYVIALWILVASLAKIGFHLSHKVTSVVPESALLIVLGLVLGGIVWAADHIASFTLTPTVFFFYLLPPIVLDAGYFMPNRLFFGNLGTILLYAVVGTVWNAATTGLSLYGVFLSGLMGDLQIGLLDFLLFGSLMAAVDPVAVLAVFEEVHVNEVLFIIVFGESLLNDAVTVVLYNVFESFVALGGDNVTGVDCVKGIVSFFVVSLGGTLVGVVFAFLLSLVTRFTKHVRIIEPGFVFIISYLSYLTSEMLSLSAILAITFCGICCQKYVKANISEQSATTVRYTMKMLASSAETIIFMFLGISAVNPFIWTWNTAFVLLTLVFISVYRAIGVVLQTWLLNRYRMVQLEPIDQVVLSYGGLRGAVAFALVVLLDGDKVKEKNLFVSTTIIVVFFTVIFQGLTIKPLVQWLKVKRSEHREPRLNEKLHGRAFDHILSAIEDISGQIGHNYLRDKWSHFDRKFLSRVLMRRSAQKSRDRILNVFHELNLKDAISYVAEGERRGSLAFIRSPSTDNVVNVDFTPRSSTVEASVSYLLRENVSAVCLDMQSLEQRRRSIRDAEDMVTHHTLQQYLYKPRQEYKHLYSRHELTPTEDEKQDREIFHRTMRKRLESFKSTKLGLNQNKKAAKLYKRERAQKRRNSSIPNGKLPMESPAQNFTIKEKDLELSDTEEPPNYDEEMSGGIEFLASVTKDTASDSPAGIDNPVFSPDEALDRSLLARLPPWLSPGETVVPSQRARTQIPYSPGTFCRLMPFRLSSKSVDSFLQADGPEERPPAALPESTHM

[8] = Cmax in Sprague-Dawley rat at 1.5 mg/kg, po administered via gavage by LC-MS/MS analysis; assay type: ADME, organism-based; parameters: dose 1.5 mg/kg, route po; settings: in vivo
Rattus norvegicus [9] = test: In vivo inhibition of NEH3 in Sprague-Dawley rat assessed as increase in colon water content at 10 mg/kg, po administered via gavage measured after 6 hrs; assay type: functional, organism-based
[10] = Cmax in Sprague-Dawley rat at 30 mg/kg, po administered via gavage by LC-MS/MS analysis; assay type: ADME, organism-based; parameters: dose 30 mg/kg, route po; settings: Sprague-Dawley, in vivo, read-out: Cmax
Rattus norvegicus [11] = test: In vivo inhibition of NEH3 in Sprague-Dawley rat assessed as reduction in sodium excretion in urine at 0.1 to 3 mg/kg, po administered via gavage measured after 16 hrs by ion chromatography; assay type: functional, organism-based; settings: dose 0.1-3 mg/kg
[12] = Drug metabolism in Sprague-Dawley rat feces at 0.3 mg/kg, po administered via gavage measured after 64 hrs by LC-MS/MS analysis; assay type: ADME, organism-based; settings: in vivo
[13] = Drug metabolism in Sprague-Dawley rat at 30 mg/kg, po administered via gavage by LC-MS/MS analysis; assay type: ADME, organism-based; settings: in vivo
hERG (KCNH2) = hERG (KCNH2) (Homo sapiens, UniProt Q12809); test: Inhibition of human ERG at 10 uM relative to control; assay type: toxicity
Sequence of hERG (KCNH2) (Q12809 whole entry): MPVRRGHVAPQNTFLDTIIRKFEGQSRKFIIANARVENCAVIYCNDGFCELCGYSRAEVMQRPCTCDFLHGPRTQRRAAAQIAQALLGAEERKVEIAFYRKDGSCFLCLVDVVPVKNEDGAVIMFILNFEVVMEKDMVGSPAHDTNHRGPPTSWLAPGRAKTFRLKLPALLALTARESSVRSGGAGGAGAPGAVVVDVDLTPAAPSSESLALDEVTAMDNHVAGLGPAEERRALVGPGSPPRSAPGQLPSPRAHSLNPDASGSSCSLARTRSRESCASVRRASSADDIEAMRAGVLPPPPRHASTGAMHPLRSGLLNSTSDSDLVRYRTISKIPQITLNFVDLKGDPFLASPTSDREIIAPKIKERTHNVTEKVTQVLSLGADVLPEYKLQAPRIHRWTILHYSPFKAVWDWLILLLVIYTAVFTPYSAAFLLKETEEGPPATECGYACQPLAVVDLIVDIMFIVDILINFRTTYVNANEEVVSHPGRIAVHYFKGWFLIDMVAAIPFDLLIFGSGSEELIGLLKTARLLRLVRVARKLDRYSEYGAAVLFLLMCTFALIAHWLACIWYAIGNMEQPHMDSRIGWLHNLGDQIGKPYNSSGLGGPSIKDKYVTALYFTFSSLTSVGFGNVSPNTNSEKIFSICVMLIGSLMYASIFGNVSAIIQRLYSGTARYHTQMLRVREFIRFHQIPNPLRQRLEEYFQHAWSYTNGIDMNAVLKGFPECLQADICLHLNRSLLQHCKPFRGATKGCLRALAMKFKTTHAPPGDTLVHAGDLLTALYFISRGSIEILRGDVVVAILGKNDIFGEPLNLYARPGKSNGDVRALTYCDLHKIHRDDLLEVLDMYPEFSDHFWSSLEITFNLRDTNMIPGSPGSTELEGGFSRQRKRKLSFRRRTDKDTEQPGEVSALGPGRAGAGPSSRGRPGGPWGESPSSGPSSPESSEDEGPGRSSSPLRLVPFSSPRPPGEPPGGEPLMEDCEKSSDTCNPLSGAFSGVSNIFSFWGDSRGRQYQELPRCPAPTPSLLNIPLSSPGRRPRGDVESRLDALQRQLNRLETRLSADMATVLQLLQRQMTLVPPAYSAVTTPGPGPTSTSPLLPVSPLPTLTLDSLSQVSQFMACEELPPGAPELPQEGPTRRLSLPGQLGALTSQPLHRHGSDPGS

[14] = Drug recovery in Sprague-Dawley rat feces at 0.3 mg/kg, po administered via gavage measured after 64 hrs by LC-MS/MS analysis; assay type: ADME, organism-based; settings: faeces, read-out: Drug recovery
[15] = In vivo inhibition of NEH3 in Sprague-Dawley rat assessed as increase in fecal water content at 0.1 to 3 mg/kg, po administered via gavage measured after 6 hrs; assay type: functional; parameters: scale not given: the % may be the effect or the level left; settings: dose 0.1-3 mg/kg
[16] = Oral bioavailability in Sprague-Dawley rat at 11 mg/kg administered via gavage by LC-MS/MS analysis; assay type: ADME, organism-based; settings: in vivo
[17] = Apparent permeability in MDCK cells at 10 uM measured after 60 mins by LC-MS/MS analysis; assay type: ADME, cell-based, Canis lupus familiaris; settings: dog, 1 h
[18] = AUC in Sprague-Dawley rat at 11 mg/kg, po administered via gavage by LC-MS/MS analysis; settings: in vivo
[19] = Cmax in Sprague-Dawley rat at 11 mg/kg, po administered via gavage by LC-MS/MS analysis; assay type: ADME, organism-based; parameters: dose 11 mg/kg, route po; settings: in vivo
[20] = Cmax in Sprague-Dawley rat at 22 mg/kg, po administered via gavage by LC-MS/MS analysis; assay type: ADME, organism-based; parameters: dose 22 mg/kg, route po; settings: in vivo
[21] = In vivo inhibition of NEH3 in Sprague-Dawley rat assessed as fecal form score at 3 mg/kg, po administered via gavage measured after 6 hrs; assay type: functional
[22] = AUC in Sprague-Dawley rat at 22 mg/kg, po administered via gavage by LC-MS/MS analysis; settings: in vivo
[23] = AUC in Sprague-Dawley rat at 1.8 mg/kg, po administered via gavage by LC-MS/MS analysis; settings: in vivo
[24] = Cmax in Sprague-Dawley rat at 1.8 mg/kg, po administered via gavage by LC-MS/MS analysis; assay type: ADME, organism-based; parameters: dose 1.8 mg/kg, route po; settings: in vivo
[25] = AUC in Sprague-Dawley rat at 19 mg/kg, po administered via gavage by LC-MS/MS analysis; settings: in vivo
[26] = Cmax in Sprague-Dawley rat at 19 mg/kg, po administered via gavage by LC-MS/MS analysis; assay type: ADME, organism-based; parameters: dose 19 mg/kg, route po; settings: in vivo
[27] = Cmax in Sprague-Dawley rat at 23 mg/kg, po administered via gavage by LC-MS/MS analysis; assay type: ADME, organism-based; parameters: dose 23 mg/kg, route po; settings: in vivo
[28] = AUC in Sprague-Dawley rat at 23 mg/kg, po administered via gavage by LC-MS/MS analysis; settings: in vivo
[29] = AUC in Sprague-Dawley rat at 17 mg/kg, po administered via gavage by LC-MS/MS analysis; settings: in vivo
[30] = Cmax in Sprague-Dawley rat at 17 mg/kg, po administered via gavage by LC-MS/MS analysis; assay type: ADME, organism-based; parameters: dose 17 mg/kg, route po; settings: in vivo
[31] = AUC in Sprague-Dawley rat at 28 mg/kg, po administered via gavage by LC-MS/MS analysis; settings: in vivo
[32] = Cmax in Sprague-Dawley rat at 28 mg/kg, po administered via gavage by LC-MS/MS analysis; assay type: ADME, organism-based; parameters: dose 28 mg/kg, route po; settings: in vivo
[33] = Dose normalized AUC in Sprague-Dawley rat at […], po administered via gavage by LC-MS/MS analysis; assay type: ADME, organism-based; settings: in vivo, dose 7.2 mg/kg
[34] = Cmax in Sprague-Dawley rat at […], po administered via gavage by LC-MS/MS analysis; assay type: ADME, organism-based; parameters: dose 7.2 mg/kg, route po; settings: in vivo

CN1Cc2c(Cl)cc(Cl)cc2C(c2ccc(S(=O)(=O)NCCOCCOCCOCCNC(=O)NCCOCCOCCOCCNS(=O)(=O)c3ccc(C4CN(C)Cc5c(Cl)cc(Cl)cc54)cc3)cc2)C1 (centres undefined)
Activity [1]: 60% | AUC [2]: < 19 ng·h/mL | Activity [3]: 25%

CN1Cc2c(Cl)cc(Cl)cc2[C@H](c2cccc(NC(=O)[C@H](O)[C@@H](O)[C@H](O)[C@H](O)CO)c2)C1
inhibition (Rattus norvegicus [4]): Active | AUC [5]: 12 ng·h/mL | IC50 [6]: 39.8 nM | IC50 [7]: 25.1 nM | Cmax [8]: 6 ng/mL | inhibition (Rattus norvegicus [9]): Active

CN1Cc2c(Cl)cc(Cl)cc2[C@H](c2cccc(S(=O)(=O)NCCOCCOCCNC(=O)COCC(=O)NCCOCCOCCNS(=O)(=O)c3cccc([C@@H]4CN(C)Cc5c(Cl)cc(Cl)cc54)c3)c2)C1
Cmax [10]: < 2 ng/mL | inhibition (Rattus norvegicus [11]): Active | Drug metabolism [12]: Metabolite_Notdetected | Drug metabolism [13]: Metabolite_Notdetected | inhibition at 10 µM (hERG (KCNH2)): < 50% | dose excreted at 64 h [14]: 117% | Activity [15]: 10%

CN1Cc2c(Cl)cc(Cl)cc2C(c2cccc(S(N)(=O)=O)c2)C1 (racemic)
F [16]: 98% | Papp [17]: >= 10 10^-6 cm/s | AUC [18]: 522 ng·h/mL | Cmax [19]: 159 ng/mL | IC50 [7]: 631 nM

CN1Cc2c(Cl)cc(Cl)cc2C(c2cccc(S(=O)(=O)NCCOCCOCCNC(=O)c3ccc(C(=O)NCCOCCOCCNS(=O)(=O)c4cccc(C5CN(C)Cc6c(Cl)cc(Cl)cc65)c4)cc3)c2)C1 (racemic)
Cmax [20]: < 2 ng/mL | Activity [1]: 58% | IC50 [6]: 6310 nM | Activity [3]: 24% | Activity [21]: 2 | AUC [22]: < 8 ng·h/mL

CN1Cc2c(Cl)cc(Cl)cc2C(c2cccc(S(=O)(=O)NCCOCCOCCOCCNC(=O)NCCOCCOCCOCCNS(=O)(=O)c3cccc(C4CN(C)Cc5c(Cl)cc(Cl)cc54)c3)c2)C1 (racemic)
AUC [23]: < 75 ng·h/mL | Activity [1]: 50% | IC50 [6]: 100 nM | Cmax [24]: < 20 ng/mL | Activity [3]: 87% | Activity [21]: 1 | IC50 [7]: 200 nM

CN1Cc2c(Cl)cc(Cl)cc2C(c2ccc(S(=O)(=O)NCCOCCOCCOCCNC(=O)c3ccc(C(=O)NCCOCCOCCOCCNS(=O)(=O)c4ccc(C5CN(C)Cc6c(Cl)cc(Cl)cc65)cc4)cc3)cc2)C1 (racemic)
Activity [1]: 56% | IC50 [6]: 12.6 nM | Activity [3]: 50% | Activity [21]: 1.5 | AUC [25]: < 9 ng·h/mL | IC50 [7]: 39.8 nM | Cmax [26]: < 3 ng/mL

CN1Cc2c(Cl)cc(Cl)cc2C(c2ccc(S(=O)(=O)NCCOCCOCCNC(=O)c3ccc(C(=O)NCCOCCOCCNS(=O)(=O)c4ccc(C5CN(C)Cc6c(Cl)cc(Cl)cc65)cc4)cc3)cc2)C1 (racemic)
Cmax [27]: < 3 ng/mL | Activity [1]: 56% | IC50 [6]: 398 nM | Activity [3]: 45% | Activity [21]: 2 | AUC [28]: < 8 ng·h/mL

CN1Cc2c(Cl)cc(Cl)cc2C(c2ccc(S(=O)(=O)NCCOCCOCCNC(=O)NCCOCCOCCNS(=O)(=O)c3ccc(C4CN(C)Cc5c(Cl)cc(Cl)cc54)cc3)cc2)C1 (racemic)
Activity [1]: 49% | AUC [29]: < 8 ng·h/mL | Activity [3]: 107% | Activity [21]: 1 | Cmax [30]: < 2 ng/mL

CN1Cc2c(Cl)cc(Cl)cc2C(c2cccc(S(=O)(=O)NCCOCCOCCOCCNC(=O)CCC(=O)NCCOCCOCCOCCNS(=O)(=O)c3cccc(C4CN(C)Cc5c(Cl)cc(Cl)cc54)c3)c2)C1 (racemic)
AUC [31]: < 8 ng·h/mL | Activity [1]: 54% | Activity [3]: 56% | Activity [21]: 1.5 | Cmax [32]: < 2 ng/mL

CN1Cc2c(Cl)cc(Cl)cc2C(c2cccc(S(=O)(=O)NCCOCCOCCOCCNC(=O)c3ccc(C(=O)NCCOCCOCCOCCNS(=O)(=O)c4cccc(C5CN(C)Cc6c(Cl)cc(Cl)cc65)c4)cc3)c2)C1 (racemic)
Activity [1]: 53% | IC50 [6]: 25.1 nM | Activity [3]: 87% | Activity [21]: 1 | IC50 [7]: 50.1 nM | AUC [33]: < 12 ng·h/mL | Cmax [34]: < 4 ng/mL
